Test results reported in patent US8343912B2, “Antibiotic compositions for the treatment of gram negative infections” (priority 2008, dated 2013).
Converted amounts (≈) assume the structure as drawn. Marks after values point to notes of the source that are not given here. Numbered stars: 1 amine (or outer) side, 2 acyl side, 3 side chain; on linkers, the order of the positions; unused ones are H or OH. Bridge positions count the residues as written; N and C are the ends. Square brackets hold non-standard residues; d marks the D form. Peptide text beside a SMILES is read from it. * marks the point of attachment. Octanoyl(6-Me) = CCC(C)CCCCC(=O)*; NH(2-ClPh) = Clc1ccccc1N*; Dab = NCC[CH](N)C(=O)O; CO = O=C([*:1])[*:2]

What was measured:
P. aeruginosa #44 = assay: Lung infection in neutropenic mice; format: in vivo; details: for Log10 CFU/mL lung homogenate ± SD: lungs at 24 h; for ED−3log10 (dose for 3 log10 reduction in bacterial count vs water): lung infection, sc, Compound 5 value corrected for lot potency 711 μg/mg
Description: Infection was induced in normal immunocompetent or neutropenic mice by intranasal inoculation of P. aeruginosa #44. […] At 24 hours post-infection, mice were humanely euthanized and the lungs of the mice were removed, homogenized, serially diluted, and plated on agar, to quantitate the bacterial burden.
All of the test compounds were dissolved in sterile water for administration by subcutaneous (sc) injection. […] A series of dilutions of test compounds were prepared in water.
In the lung infection model using P. aeruginosa #44 as the infecting organism, CD-1 mice were made neutropenic by intraperitoneal (ip) administration with 150 mg/kg cyclophosphamide on day-4, followed by a second ip dose of 100 mg/kg cyclophosphamide on day-1. On day 0 a diluted, exponential-phase growing culture of P. aeruginosa #44 corresponding to 1×10^5 or 2.5×10^8 CFU respectively, in 0.1 mL of sterile saline, was inoculated by the intranasal route in mice. Just prior to inoculation, mice were anaesthetized with 60 mg/kg pentobarbital, ip. The actual concentration of bacteria in the inoculum was confirmed by determination of viable counts by dilution plating on tryptic soy agar plates. The number of CFU of bacteria was determined after an incubation of 16 h at 37° C.
Groups of five mice were used for each dose of the test compounds and the vehicle (water) control group. Each group received sc injections of test compounds or vehicle at 1 hour post-infection, and then at 6 hours post-infection for a total of 2 doses. In each study, there were three to five dose groups per test compound.
Eighteen hours after the last injection, the mice were euthanized by asphyxiation with CO2. The lungs were removed aseptically, homogenized in 4 mL of sterile, distilled water and dilution plated on tryptic soy agar plates to quantify bacterial CFU. The number of CFU of bacteria in lungs was determined after an incubation of 16 hours at 37° C. (the CFU per milliliter of homogenate).
(§1) The results were expressed as the geometric mean log10 CFU/mL±the standard deviation. The limit of detection was 10 CFU per mL of lung homogenate. Lungs were considered sterile when no CFU were detected on the agar. The efficacy of the test compounds was assessed by comparing the number of log10 CFU/mL measured in the infected and treated mice with control animals treated with water.
Dose response curves of test compounds were generated for each isolate. Regression lines were generated in Microsoft Excel and used to calculate the dose expected to produce a 3 log10 reduction in bacterial count as compared to water-treated group [ED−3 log 10 (mg/kg, sc, BID)].

A. baumannii #1570 = assay: Thigh infection in neutropenic mice; format: in vivo; details: for Log10 CFU/mL thigh homogenate ± SD: thighs at 24 h; for ED−3log10 (dose for 3 log10 reduction in bacterial count vs water): thigh infection, sc, Compound 5 value corrected for lot potency 711 μg/mg
Description: Infections were induced in neutropenic mice by […] the left thigh of each mouse. Compound 5, or a comparator drug, either polymyxin B, colistin or imipenem, were administered subcutaneously at 1 hour and 6 hours post-infection. Eighteen hours after the last treatment, mice were euthanized humanely; the infected thighs were removed, homogenized, serially diluted, and plated on agar. The bacterial burden was then quantitated by colony count. Compound 5, polymyxin B, colistin, and imipenem were evaluated for their ability to decrease the bacterial burden in the infected thighs compared with water-treated control mice.
All the test compounds were dissolved in sterile water for administration by subcutaneous (sc) injection. A series of dilutions of test compounds were prepared in sterile water.
Mice were made neutropenic by ip administration with 150 mg/kg cyclophosphamide on day-4, followed by a second ip dose of 100 mg/kg cyclophosphamide on day-1. A diluted exponential-phase growing culture of A. baumannii #1570 corresponding to 1×10^7 or 5×10^4 CFU respectively, in 0.2 mL of sterile saline, was injected into the left thigh of conscious mice on day 0. The actual concentration of bacteria in the inoculum was confirmed by determination of viable counts by dilution plating on tryptic soy agar plates. The number of CFU of bacteria was determined after an incubation of 16 hours at 37° C.
Groups of five mice were used for each dose of the test compounds and the vehicle. Each group received sc injections of test compounds or vehicle at 1 hour post-infection, and then at 6 hours post-infection for a total of 2 doses. In each study, there were three to five dose groups per test compound. Eighteen hours after the last injection, the mice were euthanized by asphyxiation with CO2. The left thighs were removed aseptically, homogenized in 4 mL of distilled water and dilution plated on tryptic soy agar plates to quantify bacterial CFU. The number of CFU of bacteria in thighs was determined after an incubation of 16 hours at 37° C. (the CFU per milliliter of homogenate).
as §1, with “thigh” for “lung”, “Thighs” for “Lungs”, “the” for “the infected and”, “vehicle (water). The efficacy of Compound 5 was also compared with the positive comparator antibiotics polymyxin B, colistin and imipenem-cilastatin.” for “water.”
Dose response curves of test compounds were generated for each isolate. Regression lines were generated using Microsoft Excel to calculate the dose administered twice daily (BID) predicted to produce a 3 log10 reduction in bacterial count as compared to the water-treated control group [ED−3 log 10 (mg/kg, sc, BID)].

P. aeruginosa = assay: MIC, broth microdilution (Table 4); format: cell-based, Pseudomonas aeruginosa; details: for MIC P. aeruginosa: Table 4
Description: MIC testing was performed according to Clinical and Laboratory Standards Institute (CLSI) M7-A7 (2006) broth microdilution methods. Unless otherwise indicated, MIC values are provided in units of micrograms per milliliter.
One day prior to testing, individual colonies were isolated by streaking onto rich, non-selective Tryptic Soy agar with 5% lysed sheeps blood (TSAB) with incubation at 35-37° C. for 18-24 hours.
Cultures were prepared by touching 3-5 colonies into 3 mL of Cation adjusted Mueller Hinton Broth (caMHB) in a 14 mL tube (CaMHB was prepared and sterilized according to manufacturer's specifications). Cultures were grown at 37° C. 200 rpm for approximately four hours prior to density adjustment for addition to the MIC assay.
OD600 of growing cultures was measured and adjusted to approximately 10^5 colony forming units per mL (CFU/mL) in caMHB for MIC inoculation (approximately OD600 0.001).
Diluted cultures were used to inoculate 50 μL per well in broth microdilution assays (final volume 100 μl per well; compounds were prepared in two-fold dilutions).
Plates were incubated 16-20 hrs at 37° C., with shaking at 200 rpm.
OD600 was determined for all wells. Growth was defined as OD600>0.1. MICs were defined as the lowest concentration producing no visible turbidity (OD600<0.1).

[1] = 4.0 mg/kg BID sc, 1 and 6 h post-infection, water control 6.53
[2] = 2.0 mg/kg BID sc, 1 and 6 h post-infection, water control 7.75

| SMILES | solubility (Solubility profile; ethanol) [µg/mL] | solubility (Solubility profile; water) [µg/mL] | Log10 CFU/mL lung homogenate ± SD (P. aeruginosa #44; [1]) [Log10 CFU/mL] | Log10 CFU/mL lung homogenate ± SD (P. aeruginosa #44; 8.0 mg/kg BID sc) [Log10 CFU/mL] | Log10 CFU/mL lung homogenate ± SD (P. aeruginosa #44; 12.0 mg/kg BID sc) [Log10 CFU/mL] | Log10 CFU/mL lung homogenate ± SD (P. aeruginosa #44; 16.0 mg/kg BID sc) [Log10 CFU/mL] | Log10 CFU/mL lung homogenate ± SD (P. aeruginosa #44; 20.0 mg/kg BID sc) [Log10 CFU/mL] | ED−3log10 (dose for 3 log10 reduction in bacterial count vs water) (P. aeruginosa #44) | Log10 CFU/mL thigh homogenate ± SD (A. baumannii #1570; [2]) [Log10 CFU/mL] | Log10 CFU/mL thigh homogenate ± SD (A. baumannii #1570; 4.0 mg/kg BID sc) [Log10 CFU/mL] | Log10 CFU/mL thigh homogenate ± SD (A. baumannii #1570; 8.0 mg/kg BID sc) [Log10 CFU/mL] | Log10 CFU/mL thigh homogenate ± SD (A. baumannii #1570; 12.0 mg/kg BID sc) [Log10 CFU/mL] | ED−3log10 (dose for 3 log10 reduction in bacterial count vs water) (A. baumannii #1570) | activity against bacteria compared with polymyxin B (P. aeruginosa) | MIC P. aeruginosa (P. aeruginosa) [micrograms/ml] |
| --- | --- | --- | --- | --- | --- | --- | --- | --- | --- | --- | --- | --- | --- | --- | --- |
| CC(C)C[C@@H]1NC(=O)[C@@H](Cc2ccccc2)NC(=O)[C@H](CCN)NC(=O)[C@@H](NC(=O)[C@H](CCN)NC(=O)[C@@H](NC(=O)[C@H](CCN)NC(=O)Nc2ccccc2Cl)[C@@H](C)O)CCNC(=O)[C@H]([C@@H](C)O)NC(=O)[C@H](CCN)NC(=O)[C@H](CCN)NC1=O [Compound 5, (S)-4-amino-N-((2S,3R)-1-((S)-4-amino-1-oxo-1-((3S,6S,9S,12S,15R,18S,21S)-6,9,18-tris(2-aminoethyl)-15-benzyl-3-((R)-1-hydroxyethyl)-12-isobutyl-2,5,8,11,14,17,20-heptaoxo-1,4,7,10,13,16,19-heptaazacyclotricosan-21-ylamino)butan-2-ylamino)-3-hydroxy-1-oxobutan-2-yl)-2-(3-(2-chlorophenyl)ureido)butanamide] ({NH(2-ClPh)-CO}-[Dab]T[Dab][Dab][Dab][dF]L[Dab][Dab]T; lactam 4-C) | 200 (≈ 164 µM) | > 300000 | 5.49 ± 1.27 | 4.86 ± 1.18 | 4.13 ± 1.46 | 2.56 ± 0.34 | 2.51 ± 0.70 | 9.05^b mg/kg, BID | 6.93 ± 0.56 | 6.64 ± 0.55 | 5.06 ± 0.80 | 3.97 ± 0.34 | 6.4^b mg/kg, BID | as active or more active | 2 |
| CCC(C)CCCCC(=O)NC(CCN)C(=O)NC(C(=O)NC(CCN)C(=O)NC1CCNC(=O)C(C(C)O)NC(=O)C(CCN)NC(=O)C(CCN)NC(=O)C(CC(C)C)NC(=O)C(Cc2ccccc2)NC(=O)C(CCN)NC1=O)C(C)O (stereo not drawn) [Polymyxin B, polymyxin B, reference compound] ({Octanoyl(6-Me)}-[Dab]T[Dab][Dab][Dab]FL[Dab][Dab]T; lactam 4-C; configuration not given here) |  |  | 6.48 ± 1.59 | 5.73 ± 1.92 | 3.47 ± 1.16 | 2.88 ± 1.07 | 2.71 ± 1.09 | 12.97 mg/kg, BID | 6.04 ± 1.10 | 4.94 ± 1.03 | 4.07 ± 0.41 | 4.19 ± 0.59 | 4.8 mg/kg, BID |  | 2 |
